# According to patent US6555091B1, “Polypeptide capable of reacting with antibodies of patients suffering from multiple sclerosis and uses” (Bio Merieux, priority 1997, dated 2003):
# Columns and labels:
# [1] = system: IgG of CSF from patients suffering from MS; test: ELISA of polypeptides, IgG response of CSFs diluted 1/10 (Table 5, FIGS. 7A and 7B); format: binding, human; design: key to IgG recognition by CSF: positive (+) if the OD value at 492 nm for a 1/10 dilution of the CSF is greater than the mean values obtained for the CSFs from the ND patients+3 times the standard deviation; conditions: for number of positive (+) CSFs: total line, 15 MS patients, CSF 1/10
# Text: FIGS. 7A and 7B represents the IgG response of the polypeptides whose peptide sequence consists of, respectively, SEQ ID NO: 13, SEQ ID NO: 12, SEQ ID NO: 14, SEQ ID NO: 16, SEQ ID NO: 19 and SEQ ID NO: 15, with respect to CSFs diluted 1/10; the results assembled in the appended Table 5 are expressed by the difference in the optical density values obtained for the polypeptide tested and the values obtained for the HIV polypeptide used as control; ND corresponds to patients suffering from a neurological disease other than MS, and MS* corresponds to patients suffering from MS.
# Table 5, illustrated in FIGS. 7A and 7B, collates the results on the specific recognition of CSF from patients suffering from MS for 6 polypeptides of the invention, SEQ ID NO: 13, SEQ ID NO: 12, SEQ ID NO: 14, SEQ ID NO: 16, SEQ ID NO: 19 and SEQ ID NO: 15.
# For each polypeptide tested, identified in Table 5 by its peptide sequence, the CSFs from patients 1-22 suffering from Ms are determined as positive (+) if the OD value at 492 nm for a 1/10 dilution of the CSF is greater than the mean values obtained for the CSFs from the ND patients+3 times the standard deviation.
# [2] = system: IgM of sera from MS patients and healthy individuals; test: ELISA of biotinylated synthetic peptide, IgM response of individual human sera; format: binding; design: key to LINE (mark: serum recognizes the peptide): X: 7 sera out of 11 recognize this peptide; conditions: 1/100; for LINE (mark: serum recognizes the peptide) / OD 1 / OD 2 / OD 3 / MEAN: IgM
# Description: Depending on the information obtained from the preceding examples, the hexapeptides SEQ ID NO: 3 and SEQ ID NO: 4 were synthesized and biotinylated according to the method described in Patent Application No. EP 93420183 with the following modifications: the peptide still bound to the resin is selectively deprotected at the N-terminal position. After overnight incubation with the biotin-NHS at 50% in DMF, the peptide is then cleaved from the resin and treated as described in the patent cited above.
# The wells of a Maxisorb (trade name, Nunc) microtiter plate are saturated with 100 μl of a 50 mM NaHCO3 solution, pH 9.6, containing 10 μg/ml of streptavidin for 2 hours at 37° C. The plate is washed with TBS/0.05% Tween 20 buffer. The wells are then saturated with 250 μl of wash buffer supplemented with 10% goat serum for 1 hour at 37° C. and then washed as described above.
# The IgM response is determined by addition of a 1/4000 solution of mouse monoclonal antibody anti-alkaline phosphatase-labeled human M immunoglobulin conjugate (bioMérieux Ac 5A10D5). After incubation at 37° C. for one hour the plate is again washed and the p-nitrophenyl phosphate substrate at 1 mg/ml in an […] of diethanolamine, pH 9.8, containing 1 mM MgCl2, is added. The reaction is stopped after 30 minutes by the addition of 50 μl of 3N sodium hydroxide solution. The optical density is read at 405 nm.
# This unit was therefore also synthesized and biotinylated.
substance,measurement,setting,value
DTPYPWGWLLDEGYD (MSRV) [SEQ ID NO: 15],number of positive (+) CSFs,[1],0+
SRGSHEWAVLFRFYY (MSRV) [SEQ ID NO: 16],IgG recognition by CSF,"[1]; CSF of MS patient 1, 1/10",+
same,IgG recognition by CSF,"[1]; CSF of MS patient 2, 1/10",+
same,IgG recognition by CSF,"[1]; CSF of MS patient 3, 1/10",+
same,IgG recognition by CSF,"[1]; CSF of MS patient 5, 1/10",+
same,IgG recognition by CSF,"[1]; CSF of MS patient 6, 1/10",+
same,IgG recognition by CSF,"[1]; CSF of MS patient 7, 1/10",+
same,IgG recognition by CSF,"[1]; CSF of MS patient 8, 1/10",+
same,IgG recognition by CSF,"[1]; CSF of MS patient 10, 1/10",+
same,IgG recognition by CSF,"[1]; CSF of MS patient 18, 1/10",+
same,IgG recognition by CSF,"[1]; CSF of MS patient 21, 1/10",+
same,IgG recognition by CSF,"[1]; CSF of MS patient 22, 1/10",+
same,number of positive (+) CSFs,[1],11+
LAVRHD [SEQ ID NO: 8],LINE (mark: serum recognizes the peptide),"[2]; serum 33/6 (MS+, remission)",X
same,OD 1,"[2]; serum 33/6 (MS+, remission)",516 optical density (×1000)
same,OD 2,"[2]; serum 33/6 (MS+, remission)",529 optical density (×1000)
same,OD 3,"[2]; serum 33/6 (MS+, remission)",481 optical density (×1000)
same,MEAN,"[2]; serum 33/6 (MS+, remission), (mean less Control 1, 173)",336 optical density (×1000)
same,MEAN,"[2]; serum 33/6 (MS+, remission), MEAN",509 optical density (×1000)
same,LINE (mark: serum recognizes the peptide),"[2]; serum 33/8 (MS+, remission)",X
same,OD 1,"[2]; serum 33/8 (MS+, remission)",609 optical density (×1000)
same,OD 2,"[2]; serum 33/8 (MS+, remission)",512 optical density (×1000)
same,OD 3,"[2]; serum 33/8 (MS+, remission)",568 optical density (×1000)
same,MEAN,"[2]; serum 33/8 (MS+, remission), (mean less Control 1, 173)",390 optical density (×1000)
same,MEAN,"[2]; serum 33/8 (MS+, remission), MEAN",563 optical density (×1000)
same,LINE (mark: serum recognizes the peptide),"[2]; serum 33/18 (MS+, remission)",X
same,OD 1,"[2]; serum 33/18 (MS+, remission)",277 optical density (×1000)
same,OD 2,"[2]; serum 33/18 (MS+, remission)",262 optical density (×1000)
same,OD 3,"[2]; serum 33/18 (MS+, remission)",255 optical density (×1000)
same,MEAN,"[2]; serum 33/18 (MS+, remission), (mean less Control 1, 173)",92 optical density (×1000)
same,MEAN,"[2]; serum 33/18 (MS+, remission), MEAN",265 optical density (×1000)
same,OD 1,"[2]; serum No. 12 (MS−, healthy)",222 optical density (×1000)
same,OD 2,"[2]; serum No. 12 (MS−, healthy)",175 optical density (×1000)
same,OD 3,"[2]; serum No. 12 (MS−, healthy)",163 optical density (×1000)
same,MEAN,"[2]; serum No. 12 (MS−, healthy), (mean less Control 1, 173)",14 optical density (×1000)
same,MEAN,"[2]; serum No. 12 (MS−, healthy), MEAN",187 optical density (×1000)
same,OD 1,"[2]; serum No. 13 (MS−, healthy)",145 optical density (×1000)
same,OD 2,"[2]; serum No. 13 (MS−, healthy)",154 optical density (×1000)
same,OD 3,"[2]; serum No. 13 (MS−, healthy)",196 optical density (×1000)
same,MEAN,"[2]; serum No. 13 (MS−, healthy), (mean less Control 1, 173)",−6 optical density (×1000)
same,MEAN,"[2]; serum No. 13 (MS−, healthy), MEAN",165 optical density (×1000)
same,OD 1,"[2]; serum No. 14 (MS−, healthy)",320 optical density (×1000)
same,OD 2,"[2]; serum No. 14 (MS−, healthy)",165 optical density (×1000)
same,OD 3,"[2]; serum No. 14 (MS−, healthy)",143 optical density (×1000)
same,MEAN,"[2]; serum No. 14 (MS−, healthy), (mean less Control 1, 173)",36 optical density (×1000)
same,MEAN,"[2]; serum No. 14 (MS−, healthy), MEAN",209 optical density (×1000)
same,OD 1,"[2]; serum No. 15 (MS−, healthy)",254 optical density (×1000)
same,OD 2,"[2]; serum No. 15 (MS−, healthy)",205 optical density (×1000)
same,OD 3,"[2]; serum No. 15 (MS−, healthy)",173 optical density (×1000)
same,MEAN,"[2]; serum No. 15 (MS−, healthy), (mean less Control 1, 173)",38 optical density (×1000)
same,MEAN,"[2]; serum No. 15 (MS−, healthy), MEAN",211 optical density (×1000)
same,LINE (mark: serum recognizes the peptide),"[2]; serum QS 2 (MS+, remission)",X
same,OD 1,"[2]; serum QS 2 (MS+, remission)",281 optical density (×1000)
same,OD 2,"[2]; serum QS 2 (MS+, remission)",280 optical density (×1000)
same,OD 3,"[2]; serum QS 2 (MS+, remission)",231 optical density (×1000)
same,MEAN,"[2]; serum QS 2 (MS+, remission), (mean less Control 1, 173)",91 optical density (×1000)
same,MEAN,"[2]; serum QS 2 (MS+, remission), MEAN",264 optical density (×1000)
same,OD 1,"[2]; serum QS 3 (MS+, remission)",191 optical density (×1000)
same,OD 2,"[2]; serum QS 3 (MS+, remission)",169 optical density (×1000)
same,OD 3,"[2]; serum QS 3 (MS+, remission)",164 optical density (×1000)
same,MEAN,"[2]; serum QS 3 (MS+, remission), (mean less Control 1, 173)",2 optical density (×1000)
same,MEAN,"[2]; serum QS 3 (MS+, remission), MEAN",175 optical density (×1000)
same,LINE (mark: serum recognizes the peptide),"[2]; serum QS 4 (MS+, remission)",X
same,OD 1,"[2]; serum QS 4 (MS+, remission)",374 optical density (×1000)
same,OD 2,"[2]; serum QS 4 (MS+, remission)",361 optical density (×1000)
same,OD 3,"[2]; serum QS 4 (MS+, remission)",346 optical density (×1000)
same,MEAN,"[2]; serum QS 4 (MS+, remission), (mean less Control 1, 173)",187 optical density (×1000)
same,MEAN,"[2]; serum QS 4 (MS+, remission), MEAN",360 optical density (×1000)
same,OD 1,"[2]; serum QS 6 (MS+, remission)",156 optical density (×1000)
same,OD 2,"[2]; serum QS 6 (MS+, remission)",147 optical density (×1000)
same,OD 3,"[2]; serum QS 6 (MS+, remission)",151 optical density (×1000)
same,MEAN,"[2]; serum QS 6 (MS+, remission), (mean less Control 1, 173)",−22 optical density (×1000)
same,MEAN,"[2]; serum QS 6 (MS+, remission), MEAN",151 optical density (×1000)
same,LINE (mark: serum recognizes the peptide),"[2]; serum QS 7 (MS+, remission)",X
same,OD 1,"[2]; serum QS 7 (MS+, remission)",311 optical density (×1000)
same,OD 2,"[2]; serum QS 7 (MS+, remission)",290 optical density (×1000)
same,OD 3,"[2]; serum QS 7 (MS+, remission)",164 optical density (×1000)
same,MEAN,"[2]; serum QS 7 (MS+, remission), (mean less Control 1, 173)",82 optical density (×1000)
same,MEAN,"[2]; serum QS 7 (MS+, remission), MEAN",265 optical density (×1000)
same,LINE (mark: serum recognizes the peptide),"[2]; serum QS 8 (MS+, remission)",X
same,OD 1,"[2]; serum QS 8 (MS+, remission)",305 optical density (×1000)
same,OD 2,"[2]; serum QS 8 (MS+, remission)",221 optical density (×1000)
same,OD 3,"[2]; serum QS 8 (MS+, remission)",265 optical density (×1000)
same,MEAN,"[2]; serum QS 8 (MS+, remission), (mean less Control 1, 173)",91 optical density (×1000)
same,MEAN,"[2]; serum QS 8 (MS+, remission), MEAN",264 optical density (×1000)
same,OD 1,"[2]; serum QS 11 (MS+, remission)",164 optical density (×1000)
same,OD 2,"[2]; serum QS 11 (MS+, remission)",160 optical density (×1000)
same,OD 3,"[2]; serum QS 11 (MS+, remission)",139 optical density (×1000)
same,MEAN,"[2]; serum QS 11 (MS+, remission), (mean less Control 1, 173)",−19 optical density (×1000)
same,MEAN,"[2]; serum QS 11 (MS+, remission), MEAN",154 optical density (×1000)
same,OD 1,"[2]; serum QS 12 (MS+, remission)",123 optical density (×1000)
same,OD 2,"[2]; serum QS 12 (MS+, remission)",57 optical density (×1000)
same,OD 3,"[2]; serum QS 12 (MS+, remission)",148 optical density (×1000)
same,MEAN,"[2]; serum QS 12 (MS+, remission), (mean less Control 1, 173)",−64 optical density (×1000)
same,MEAN,"[2]; serum QS 12 (MS+, remission), MEAN",109 optical density (×1000)
same,"MS sera recognizing the peptide, IgM response",[2]; same panel of 11 MS remission sera,7 sera out of 11
